Measurements published in PMC9760430, “A stapled chromogranin A-derived peptide homes in on tumors that express αvβ6 or αvβ8 integrins” (International Journal of Biological Sciences, 2023).

Assays:
[1] = plasma pharmacokinetics in mice; assay type: in vivo; details: BALB/c mice, 1 nmol i.v.; plasma fluorescence 5-1440 min; two-phase exponential decay fit; 4 mice per point
Protocol: Figure S13. Plasma pharmacokinetics of 5a-IRDye in mice.
Eight BALB/c mice were divided in 2 groups (4 mice/group) and injected i.v. with 5a-IRDye (1 nmol). Their blood was then collected into heparinized tubes at 5, 30, 120, 240, and 1440 min (group 1) or after 15, 60, 180, 360, and 1440 min (group 2). Plasma samples (20 µl) were diluted with PBS (50 µl, final volume) and transferred to a black 96-well microtiter plate. The amount of fluorescence in each sample was then quantified using an Infinite 200Pro reader plate (TECAN, excitation wavelength: 766 nm; emission wavelength: 810 nm; excitation bandwidth: 9 nm; emission bandwidth: 20 nm; gain: 180 optimal (100%) and number of flashes:
25). (Dots, mean ± SE, 4 mice). Plasma half-life of 5a-IRdye was calculated using a two-phase exponential decay equation (GraphPad Prism software, San Diego California).
Chromogranin A binds to avb6-integrin and promotes wound healing in mice. Cell Mol […]
(1 picture or pasted object on this page, not shown here)

[2] = system: BxPC-3 cells (αvβ6+/αvβ8-); experiment: binding of peptide-IRDye conjugates to cultured BxPC-3 cells; assay type: cell-based, human; details: 0.32-200 nM, 1 h, 37 °C; bound NIR fluorescence
[3] = system: human umbilical vein endothelial cells (HUVECs) (αvβ6- and αvβ8-); experiment: binding of peptide-IRDye conjugates to cultured HUVECs; assay type: cell-based; details: 0.32-200 nM, 1 h, 37 °C; bound NIR fluorescence
Protocol: To assess the binding of peptide-IRDye conjugates to cells various amounts of conjugates (range 0.32-200 nM) were added to cultured cells and left to incubate for 1 h at 37 °C. After three washings, the cells were fixed and analyzed by scanning the plate with the Odyssey CLx.
A control conjugate with a cysteine in place of the peptide was also prepared in parallel. The identity of the purified products, called 5a-IRDye, 2a-IRDye, and Cys-IRDye, was confirmed by mass spectrometry analysis (Table S1). In addition, the purity and identity of 5a-IRDye was monitored by liquid chromatography–mass spectrometry (LC-MS). […]
that the product consist of a single peak at 230 and 735 nm with the expected molecular weight (purity >95%) (Figure S3A).
The simplified molecular-input line-entry system (SMILES) of 5a-, 2a-, Cys- and 5a-Scr- […]
The concentration of each conjugate was quantified by spectrophotometric analysis at 774 nm (molar absorption coefficient, 240,000 M-1, cm-1) (Figure S3B). […]
The binding of peptide-IRDye conjugates to BxPC-3, 5M7101, and HUVECs cells was analyzed as follows. […]
chloride and 1% BSA (binding buffer) for 5 min. […] Binding of conjugates to cells was quantified by scanning the plate (filled with PBS, 100 µl/well) with the Odyssey CLx (LI-COR) using the above settings, except that the scan focus offset and scan intensity were set to 4 and 8.5, respectively. […]

CC[C@H](C)[C@H](NC(=O)[C@H](CCCNC(=N)N)NC(=O)[C@H](CC(C)C)NC(=O)[C@H](CC(=O)O)NC(=O)CNC(=O)[C@H](CCCNC(=N)N)NC(=O)[C@H](CC(C)C)NC(=O)[C@@H](NC(=O)[C@H](CCC(=O)O)NC(=O)[C@H](Cc1ccccc1)NC(=O)[C@@H](N)CSC1CC(=O)N(CCNC(=O)CCCCCN2C(=CC=C3CCCC(C=CC4=[N+](CCCCS(=O)(=O)[O-])c5ccc(S(=O)(=O)O)cc5C4(C)C)=C3Oc3ccc(S(=O)(=O)O)cc3)C(C)(C)c3cc(S(=O)(=O)O)ccc32)C1=O)[C@@H](C)O)C(=O)N[C@@H](CC(C)C)C(=O)N[C@@H](CO)C(=O)N[C@H](C(=O)N[C@@H](CC(C)C)C(=O)N[C@@H](CCCNC(=N)N)C(=O)N[C@H]1Cc2cn(nn2)CCCC[C@@H](C(=O)N[C@@H](CCCCN)C(=O)N[C@@H](CCC(=O)O)C(=O)N[C@@H](CC(C)C)C(=O)N[C@@H](CCC(N)=O)C(=O)N[C@@H](CC(=O)O)C(N)=O)NC(=O)[C@H](CC(C)C)NC(=O)[C@H](CC(N)=O)NC(=O)[C@H](CCC(N)=O)NC1=O)[C@@H](C)CC (stereo partly drawn) [5a-IRDye]
plasma half-life [1]: ~ 8 min

CC1(C)C(/C=C/C2=C(Oc3ccc(S(=O)(=O)O)cc3)C(=C\C=C3/N(CCCCCC(=O)NCCN4C(=O)CC(SC[C@H](N)C(=O)O)C4=O)c4ccc(S(=O)(=O)O)cc4C3(C)C)/CCC2)=[N+](CCCCS(=O)(=O)O)c2ccc(S(=O)(=O)[O-])cc21 (stereo partly drawn) [Cys-IRDye]
binding of conjugate to BxPC-3 cells [2]: little or no binding
binding of conjugate to HUVECs [3]: little or no binding
